Reference: ChEMBL document CHEMBL1671753, “Therapeutic drug monitoring of linezolid: a retrospective monocentric analysis” (Antimicrob Agents Chemother, 2010)

How the values were obtained:
[1] = Cmax in patient plasma at 600 mg, iv or 600 mg, po administered every 12 hrs by HPLC; type: ADME, organism-based; details: human
Homo sapiens = experiment: Nonrenal clearance in healthy human at 600 mg, po; type: ADME, organism-based; details: in vivo
[2] = AUC (24 hrs) in patient plasma at 600 mg, iv or 600 mg, po administered every 12 hrs by HPLC; type: ADME, organism-based; details: human
[3] = Drug excretion in healthy human urine assessed as unchanged compound at 600 mg, po; type: ADME, tissue-based; details: read-out: Activity
[4] = AUC (12 hrs) in liver transplant patient plasma at 600 mg, iv or 600 mg, po administered every 12 hrs by HPLC; type: ADME, organism-based; details: human

- Cmax [1]: 14700 ng/mL
- Dose non renally cleared (Homo sapiens): 65%
- AUC [2]: 196 µg·h/mL
- dose excreted [3]: 30%
- AUC at 12 h [4]: 413 µg·h/mL
SMILES: CC(=O)NC[C@H]1CN(c2ccc(N3CCOCC3)c(F)c2)C(=O)O1 [LINEZOLID]
